Experimental findings from patent publication US8420657B2 (Novartis AG, priority 2008, dated 2013) are described below.

Bounds are passed on as bounds.

For orientation: IC50 means the concentration needed to halve the response being measured.

The target in this assay is T1, GST-JAK2(808-1132) (Homo sapiens, UniProt O60674).
T1 construct: GST-JAK2(808-1132); purchased Invitrogen (Carlsbad, USA) #4288
T1 sequence (O60674 808-1132): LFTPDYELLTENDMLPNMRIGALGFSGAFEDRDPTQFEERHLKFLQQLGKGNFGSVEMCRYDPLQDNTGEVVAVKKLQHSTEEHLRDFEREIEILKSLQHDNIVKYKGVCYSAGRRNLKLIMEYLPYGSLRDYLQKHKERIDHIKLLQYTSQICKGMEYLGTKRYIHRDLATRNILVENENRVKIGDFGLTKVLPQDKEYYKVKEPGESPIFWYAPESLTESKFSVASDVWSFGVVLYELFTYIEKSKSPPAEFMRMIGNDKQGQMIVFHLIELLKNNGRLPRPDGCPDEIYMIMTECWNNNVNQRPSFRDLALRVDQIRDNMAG
In words: JAK2 kinase assay (Caliper mobility shift, LabChip 3000). The format is biochemical. The essentials:
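Recombinant GST-JAK2(808-1132) kinase domain with FITC-labelled JAK3tide peptide substrate and ATP; 60 min at 30 °C, EDTA stop. Substrate/product ratio read by microfluidic mobility shift; compounds at 8 final concentrations, 10 to 0.003 μM.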
As to `Cc1ccc(Nc2ncc3ccn(-c4cc(F)c(CN5CCOCC5)c(F)c4)c3n2)cc1Cn1cc(CCO)cn1` [Example 467, 2-(1-{5-[7-(3,5-Difluoro-4-morpholin-4-ylmethyl-phenyl)-7H-pyrrolo[2,3-d]pyrimidin-2-ylamino]-2-methyl-benzyl}-1H-pyrazol-4-yl)-ethanol], the IC50 amounted to 4.6 nM. On to `Cc1ccc(Nc2ncc3ccn(-c4ccc(C(=O)N5CCOCC5)c(F)c4)c3n2)cc1` [Example 324, [2-Fluoro-4-(2-p-tolylamino-pyrrolo[2,3-d]pyrimidin-7-yl)-phenyl]-morpholin-4-yl-methanone], for which the IC50 was 26 nM. Take `CC(=O)N1CCN(Cc2ccc(Nc3ncc4ccn(-c5ccc(S(C)(=O)=O)cc5)c4n3)cc2)CC1` [Example 319, 1-(4-{4-[7-(4-Methanesulfonyl-phenyl)-7H-pyrrolo[2,3-d]pyrimidin-2-ylamino]-benzyl}-piperazin-1-yl)-ethanone]: the 50% inhibitory concentration (IC50) is less than 3 nM. Regarding `COc1ccc(Nc2ncc3ccn(-c4ccc(S(C)(=O)=O)cc4)c3n2)cc1N1CCN(C)CC1` [Example 25, [7-(4-Methanesulfonyl-phenyl)-7H-pyrrolo[2,3-d]pyrimidin-2-yl]-[4-methoxy-3-(4-methyl-piperazin-1-yl)-phenyl]-amine], the concentration for half-maximal inhibition (IC50) was less than 3 nM. The same measure for `COC(C)c1ccc(-n2ccc3cnc(Nc4ccc(N5CCN(C)CC5)nc4)nc32)cc1` (racemic) [Example 449, {7-[4-(1-Methoxy-ethyl)-phenyl]-7H-pyrrolo[2,3-d]pyrimidin-2-yl}-[6-(4-methyl-piperazin-1-yl)-pyridin-3-yl]-amine]: no more than 3 nM.

Take `COc1ccc(Nc2ncc3ccn(-c4ccc(S(=O)(=O)NC(C)(C)C)cc4)c3n2)cc1OC` [Example 6, N-tert-Butyl-4-[2-(3,4-dimethoxy-phenylamino)-pyrrolo[2,3-d]pyrimidin-7-yl]-benzenesulfonamide]: the IC50 was less than 3 nM.

As for `C[C@@H]1CN[C@@H](C)CN1c1ccc(Nc2ncc3ccn(-c4ccc(S(N)(=O)=O)cc4)c3n2)cn1` (racemic) [Example 357, 4-{2-[6-((2R,5S)-2,5-Dimethyl-piperazin-1-yl)-pyridin-3-ylamino]-pyrrolo[2,3-d]pyrimidin-7-yl}-benzenesulfonamide], the half-maximal inhibitory concentration (IC50) amounted to 6.9 nM. As for `Fc1cc(-n2ccc3cnc(Nc4ccc(CN5CCN(C6CC6)CC5)cc4)nc32)cc(F)c1CN1CCOCC1` [Example 329, [4-(4-Cyclopropyl-piperazin-1-ylmethyl)-phenyl]-[7-(3,5-difluoro-4-morpholin-4-ylmethyl-phenyl)-7H-pyrrolo[2,3-d]pyrimidin-2-yl]-amine], the IC50 turned out to be 4 nM. To `CC(C)(C)OC(=O)N1CCC(n2cc(Nc3ncc4ccn(-c5cc(F)c(CN6CCOCC6)c(F)c5)c4n3)cn2)CC1` [Example 320, 4-{4-[7-(3,5-Difluoro-4-morpholin-4-ylmethyl-phenyl)-7H-pyrrolo[2,3-d]pyrimidin-2-ylamino]-pyrazol-1-yl}-piperidine-1-carboxylic acid tert-butyl ester] belongs 9.5 nM; to `OC1CCN(Cc2ccc(Nc3ncc4ccn(-c5cc(F)c(CN6CCOCC6)c(F)c5)c4n3)cn2)C1` (racemic) [Example 388, 1-{5-[7-(3,5-Difluoro-4-morpholin-4-ylmethyl-phenyl)-7H-pyrrolo[2,3-d]pyrimidin-2-ylamino]-pyridin-2-ylmethyl}-pyrrolidin-3-ol], no more than 3 nM. Turning to `CS(=O)(=O)c1ccc(-n2ccc3cnc(Nc4ccc(CN5CCNCC5)cc4)nc32)cc1` [Example 52, [7-(4-Methanesulfonyl-phenyl)-7H-pyrrolo[2,3-d]pyrimidin-2-yl]-(4-piperazin-1-ylmethyl-phenyl)-amine], the IC50 is less than 3 nM. To `CN1CCN(c2ccc(Nc3ncc4ccn(-c5ccc(S(C)(=O)=O)cc5)c4n3)cc2)CC1` [Example 18, [7-(4-Methanesulfonyl-phenyl)-7H-pyrrolo[2,3-d]pyrimidin-2-yl]-[4-(4-methyl-piperazin-1-yl)-phenyl]-amine] belongs less than 3 nM; to `CN1CCN(c2ccc(Nc3ncc4ccn(-c5cc(F)c(CO)c(F)c5)c4n3)cn2)CC1` [Example 280, (2,6-Difluoro-4-{2-[6-(4-methyl-piperazin-1-yl)-pyridin-3-ylamino]-pyrrolo[2,3-d]pyrimidin-7-yl}-phenyl)-methanol], 3.5 nM; to `CC(C)(C)NS(=O)(=O)c1ccc(-n2ccc3cnc(Nc4ccc(CN5CCN(C6CC6)CC5)cc4)nc32)cc1` [Example 345, N-tert-Butyl-4-{2-[4-(4-cyclopropyl-piperazin-1-ylmethyl)-phenylamino]-pyrrolo[2,3-d]pyrimidin-7-yl}-benzenesulfonamide], 3.3 nM.

On to `COc1cc(Nc2ncc3ccn(-c4ccc(S(C)(=O)=O)cc4)c3n2)cc(OC)c1` [Example 23, (3,5-Dimethoxy-phenyl)-[7-(4-methanesulfonyl-phenyl)-7H-pyrrolo[2,3-d]pyrimidin-2-yl]-amine], for which the half-maximal inhibitory concentration (IC50) amounted to 3.6 nM.

On to `CN1CCN2c3ccc(Nc4ncc5ccn(-c6ccc(S(C)(=O)=O)cc6)c5n4)cc3COCC2C1` (stereo not shown) [Example 12, [7-(4-Methanesulfonyl-phenyl)-7H-pyrrolo[2,3-d]pyrimidin-2-yl]-(3-methyl-1,2,3,4,4a,5-hexahydro-7H-6-oxa-3,11b-diaza-dibenzo[a,c]cyclohepten-9-yl)-amine], for which the half-inhibitory concentration (IC50) was less than 3 nM.

`Cc1ccc(Nc2ncc3ccn(-c4ccc(S(N)(=O)=O)cc4)c3n2)cc1CN1CCN(C)CC1` [Example 368, 4-{2-[4-Methyl-3-(4-methyl-piperazin-1-ylmethyl)-phenylamino]-pyrrolo[2,3-d]pyrimidin-7-yl}-benzenesulfonamide]: the IC50 was 3.2 nM.

Take `CN1CCN(c2ccc(Nc3ncc4ccn(-c5ccc(S(=O)(=O)NC(C)(C)C)cc5)c4n3)cc2)CC1` [Example 348, N-tert-Butyl-4-{2-[4-(4-methyl-piperazin-1-yl)-phenylamino]-pyrrolo[2,3-d]pyrimidin-7-yl}-benzenesulfonamide]: the IC50 amounted to 6.2 nM. To `CCN1CCN(c2ccc(Nc3ncc4ccn(-c5ccc(CN6CCOCC6)c(F)c5)c4n3)cc2C)CC1` [Example 285, [4-(4-Ethyl-piperazin-1-yl)-3-methyl-phenyl]-[7-(3-fluoro-4-morpholin-4-ylmethyl-phenyl)-7H-pyrrolo[2,3-d]pyrimidin-2-yl]-amine] belongs less than 3 nM. The same measure for `COc1ccc(Nc2ncc3ccn(-c4ccc(S(C)(=O)=O)cc4)c3n2)cc1` [Example 20, [7-(4-Methanesulfonyl-phenyl)-7H-pyrrolo[2,3-d]pyrimidin-2-yl]-(4-methoxy-phenyl)-amine]: 3.9 nM. The same measure for `CCc1ccc(-n2ccc3cnc(Nc4ccc(N5CCN(C)CC5)nc4)nc32)cc1` [Example 438, [7-(4-Ethyl-phenyl)-7H-pyrrolo[2,3-d]pyrimidin-2-yl]-[6-(4-methyl-piperazin-1-yl)-pyridin-3-yl]-amine]: no more than 3 nM; for `O=C(c1c(F)cc(-n2ccc3cnc(Nc4ccnc(N5CCNC6(CC6)C5)c4)nc32)cc1F)N1CCOCC1` [Example 281, (4-{2-[2-(4,7-Diaza-spiro[2.5]oct-7-yl)-pyridin-4-ylamino]-pyrrolo[2,3-d]pyrimidin-7-yl}-2,6-difluoro-phenyl)-morpholin-4-yl-methanone]: 24 nM.
